Experimental findings from patent publication US12178802B1, “3-(1-(3-(dimethylamino)propyl)-4,5-diphenyl-1H-imidazol-2-yl)pyridin-2-ol as an antitumor and antimicrobial compound” (KING FAISAL UNIVERSITY, priority 2023, dated 2024) are described below.

Holding throughout (test): cup-plate agar diffusion antimicrobial activity
What all share (assay type): cell-based
On the technique in general: Agar diffusion results depend on both activity and mobility in agar.

One experiment relates to Escherichia coli. The text has this: (§1) Antibacterial activity of the synthesized compound has been tested using Gram-negative strains such as Escherichia coli, Salmonella enteric, Pseudomonas aeruginosa, and Pseudomonas putida; and Gram-positive strains such as Staphylococcus aureus, Staphylococcus epidermidis, Bacillus subtilis, and Micrococcus luteus. Additionally, antifungal activity has been tested using different Candida strains such as Candida albicans, Candida glabrata, and Candida krusei.
(§2) The present compound 3-(1-(3-(Dimethylamino)propyl)-4,5-diphenyl-1H-imidazol-2-yl)pyridin-2-ol was dissolved in DMF followed by dilution in buffer to obtain final concentrations of 60,000, 30,000 and 15,000 ppm. The final concentration of DMF was less than 2% in the final buffer solutions.
(§3) Negative control was performed using DMF diluted to similar final concentrations of compound solutions. Ampicillin and Geneticin were used as positive controls with similar dilutions and final concentrations.
(§4) Using the cup-plate agar diffusion method, a definite volume of the microbial suspension (inoculums) was mixed with sterilized agar media. Plates were prepared and left to solidify and then wells were prepared using a sterile cork borer. The wells were filled with an equal volume of a solution of synthesized compounds and standard drugs. The plates were incubated for a definite time under specified conditions. The zones of inhibition were measured in cm as a parameter of antimicrobial activity.
(§5) The tested antimicrobial activity of the 3-(1-(3-(Dimethylamino)propyl)-4,5-diphenyl-1H-imidazol-2-yl)pyridin-2-ol, as compared to ampicillin, can be seen in Table 1, below, with zones of inhibition measured in cm.

The subject of the next experiment is Pseudomonas aeruginosa.
Excerpt: as §1, §2, §3, §4, §5

For the next experiment, the system named is Micrococcus luteus.
Excerpt: as §1, §2, §3, §4, §5

Experiment [1] has as its system Staphylococcus epidermidis.
Excerpt: as §1, §2, §3, §4, §5

A further experiment deals with Staphylococcus aureus.
Excerpt: as §1, §2, §3, §4, §5

A further experiment concerns Salmonella enterica.
Excerpt: as §1, §2, §3, §4, §5

The subject of another experiment is Bacillus subtilis.
Excerpt: as §1, §2, §3, §4, §5

Another experiment has as its system Pseudomonas putida.
Excerpt: as §1, §2, §3, §4, §5

Structures are written as SMILES.

With `CC1(C)S[C@@H]2[C@H](NC(=O)[C@H](N)c3ccccc3)C(=O)N2[C@H]1C(=O)O` [Ampicillin], the zones of inhibition in the experiment on Escherichia coli (concentration 15) came out at 0.4 cm; in the experiment on Escherichia coli (concentration 30) it was 0.8 cm; with Escherichia coli (concentration 60), 1.2 cm; in the experiment with Pseudomonas aeruginosa (concentration 15) it was 0.4 cm; in the experiment on Pseudomonas aeruginosa (concentration 30), 0.8 cm; in the experiment on Pseudomonas aeruginosa (concentration 60) it was 1.2 cm. The zones of inhibition is on record as 1.8 cm in the experiment on Micrococcus luteus (concentration 15); 2.8 cm in the experiment with Micrococcus luteus (concentration 30); 3.6 cm in the experiment with Micrococcus luteus (concentration 60); 2.5 cm in experiment [1] (concentration 15); 3.0 cm in experiment [1] (concentration 30); 3.5 cm in experiment [1] (concentration 60). For the same molecule, the zones of inhibition is 2.9 cm with Staphylococcus aureus (concentration 15); 3.5 cm in the experiment on Staphylococcus aureus (concentration 30); 4.0 cm in the experiment with Staphylococcus aureus (concentration 60); 0.9 cm in the experiment on Salmonella enterica (concentration 15); 1.3 cm in the experiment on Salmonella enterica (concentration 30); 1.6 cm with Salmonella enterica (concentration 60). For the same molecule, the zones of inhibition is listed as 1.2 cm in the experiment on Bacillus subtilis (concentration 15); 1.9 cm with Bacillus subtilis (concentration 30); 2.3 cm in the experiment with Bacillus subtilis (concentration 60); 0.3 cm with Pseudomonas putida (concentration 15); 0.6 cm with Pseudomonas putida (concentration 30); 1.0 cm in the experiment with Pseudomonas putida (concentration 60).

Consider `CN(C)CCCn1c(-c2cccnc2O)nc(-c2ccccc2)c1-c1ccccc1` [3-(1-(3-(Dimethylamino)propyl)-4,5-diphenyl-1H-imidazol-2-yl)pyridin-2-ol], for which the zones of inhibition with Escherichia coli (concentration 15) worked out at 0.6 cm; in the experiment on Escherichia coli (concentration 30) it was 0.9 cm; in the experiment on Escherichia coli (concentration 60), 1.00 cm; in the experiment on Pseudomonas aeruginosa (concentration 15), 0.6 cm; in the experiment on Pseudomonas aeruginosa (concentration 30), 0.7 cm; with Pseudomonas aeruginosa (concentration 60), 1.1 cm. Moreover, the zones of inhibition with Micrococcus luteus (concentration 15) is given as 1.2 cm; with Micrococcus luteus (concentration 30), 2.4 cm; in the experiment with Micrococcus luteus (concentration 60), 3.2 cm; in experiment [1] (concentration 15) it was 2.1 cm; in experiment [1] (concentration 30), 3.0 cm; in experiment [1] (concentration 60), 3.3 cm. Besides, the zones of inhibition in the experiment with Staphylococcus aureus (concentration 15) was 2.0 cm; in the experiment on Staphylococcus aureus (concentration 30) it was 2.9 cm; in the experiment with Staphylococcus aureus (concentration 60), 3.9 cm; in the experiment on Salmonella enterica (concentration 15), 0.7 cm; in the experiment with Salmonella enterica (concentration 30) it was 1.0 cm; in the experiment with Salmonella enterica (concentration 60) it was 1.7 cm. Also, the zones of inhibition was found to be 1.1 cm in the experiment with Bacillus subtilis (concentration 15); 1.5 cm with Bacillus subtilis (concentration 30); 2.7 cm with Bacillus subtilis (concentration 60); 0.1 cm with Pseudomonas putida (concentration 15); 0.5 cm with Pseudomonas putida (concentration 30); 1.1 cm in the experiment on Pseudomonas putida (concentration 60).
